Laboratory results from patent US20180110824A1, “Macrocyclic Modulators of the Ghrelin Receptor” (Ocera Therapeutics, Inc., priority 2016, published 2018).

Target: T1, human growth hormone secretagogue receptor (hGHS-R1a) (Homo sapiens, UniProt Q92847)
T1 construct: purchased PerkinElmer BioSignal #RBHGHSM; host or cells: HEK-293, stably transfected
Assay: Competitive radioligand binding assay (ghrelin receptor), [125I]-ghrelin displacement on GHS-R/HEK 293 membranes
Conditions: Table 3B; binding activity at the human ghrelin receptor; read-out: Ki
Method: The competitive binding assay at the human growth hormone secretagogue receptor (hGHS-R1a) was carried out analogously to assays described in the literature.
Multiscreen Harvest plates-GF/C (Millipore, #MAHFC1H60) • 4. […] Bottom seal (Millipore, #MATAH0P00) • 7. […] Binding Buffer: 25 mM Hepes (pH 7.4), 1 mM CaCl2, 5 mM MgCl2, 2.5 mM EDTA, 0.4% BSA
Competition experiments were performed in a 300 μl filtration assay format. • 1. 220 μL of membranes diluted in binding buffer • 2. 40 μL of compound diluted in binding buffer • 3.
Compounds were provided frozen on dry ice at a stock concentration of 10 mM diluted in 100% DMSO and stored at −80° C. until the day of testing. On the test day, compounds were allowed to thaw at rt O/N and then diluted in assay buffer according to the desired test concentrations. Under these conditions, the maximal final DMSO concentration in the assay was 0.1%.
Plates were sealed with TopSeal-A, vortexed gently and incubated at rt for 30 min. The reaction was arrested by filtering samples through Multiscreen Harvest plates (pre-soaked in 0.5% polyethyleneimine) using a Tomtec Harvester, washed 9 times with 500 μL of cold 50 mM Tris-HCl (pH 7.4, 4° C.), and then plates were air-dried in a fumehood 30 min. A bottom seal was applied to the plates prior to the addition of 25 μL of MicroScint-0 to each well. […] Results were expressed as counts per minute (cpm).
Data were analyzed by GraphPad Prism (GraphPad Software, San Diego, Calif.) using […] non-linear regression analysis.
where total and non-specific binding represent the cpm obtained in the absence or presence of 1 μM ghrelin, respectively.
• 1. Binding performed on membranes prepared from HEK293 expressing the transfected, cloned human ghrelin receptor (hGHS-R1a). • 2. […] Ghrelin (unlabeled, 1 μM) was used to determine non-specific binding. • 4.

T1 sequence (Q92847 whole entry): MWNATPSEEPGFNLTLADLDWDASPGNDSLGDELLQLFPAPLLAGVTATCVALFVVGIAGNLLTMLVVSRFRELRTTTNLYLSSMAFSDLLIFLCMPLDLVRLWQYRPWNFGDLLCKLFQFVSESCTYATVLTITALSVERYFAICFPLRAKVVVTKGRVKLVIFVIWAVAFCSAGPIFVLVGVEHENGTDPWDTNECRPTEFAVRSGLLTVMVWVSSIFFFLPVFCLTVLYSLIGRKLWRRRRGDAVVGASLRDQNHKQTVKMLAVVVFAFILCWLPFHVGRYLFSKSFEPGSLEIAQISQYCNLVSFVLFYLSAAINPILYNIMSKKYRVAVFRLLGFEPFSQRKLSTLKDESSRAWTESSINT

Ki [nM]	Structure (SMILES)
10 to 100	O=C1NC2(CCCC2)C(=O)N[C@@H](Cc2cccc(Cl)c2)C(=O)NC/C=C/c2ccccc2OCCN[C@H]1Cc1ccsc1 [compound 341]
10 to 100	C[C@@H]1C(=O)N[C@H](Cc2ccc(F)cc2)C(=O)NCCCc2cc(F)ccc2OCCN[C@@H](C2CC2)C(=O)N1C [compound 355]
100 to 1000	C[C@@H]1C(=O)N[C@H](Cc2ccc(F)cc2)C(=O)NCCCc2ccc(NS(C)(=O)=O)cc2OCCN[C@@H](C2CC2)C(=O)N1C [compound 357]
100 to 1000	CC[C@H](C)[C@@H]1NCCOc2ccccc2C(C)(C)CCNC(=O)[C@H](Cc2cccc(Cl)c2)NC(=O)C2(CCCC2)NC1=O [compound 359]
100 to 1000	CC[C@H](C)[C@@H]1NCCCCCCNC(=O)[C@H](Cc2cccc(Cl)c2)NC(=O)C2(CCCC2)NC1=O [compound 365]
100 to 1000	CC[C@H](C)[C@@H]1NCCCCCCCNC(=O)[C@H](Cc2cccc(Cl)c2)NC(=O)C2(CCCC2)NC1=O [compound 366]
100 to 1000	CCC(C)C1NCCOCCCCCNC(=O)C(Cc2cccc(Cl)c2)NC(=O)C2(CCCC2)NC1=O (stereo not drawn) [compound 370]
100 to 1000	CC1CNC(=O)[C@@H](Cc2ccc(F)cc2)NC(=O)[C@@H](C)N(C)C(=O)[C@H](C2CC2)NCCOc2ccccc2C1 (stereo partly drawn) [compound 376]
100 to 1000	C[C@@H]1C(=O)N[C@H](Cc2ccc(F)cc2)C(=O)NCCC(C)(C)c2ccccc2OCCN[C@@H](C2CC2)C(=O)N1C [compound 378]
10 to 100	CC[C@H](C)[C@@H]1NCCOc2ccccc2C#CCNC(=O)[C@H](Cc2cccc(Cl)c2)NC(=O)C2(CCCC2)NC1=O [compound 381]
100 to 1000	CC[C@H](C)[C@@H]1NCCOc2cccnc2CCCNC(=O)[C@H](Cc2cccc(Cl)c2)NC(=O)C2(CCCC2)NC1=O [compound 385]
100 to 1000	CC[C@H](C)[C@@H]1NCCOc2ccccc2C(C)CCNC(=O)[C@H](Cc2cccc(Cl)c2)NC(=O)C2(CCCC2)NC1=O (stereo partly drawn) [compound 386]
100 to 1000	CC[C@H](C)[C@@H]1NCCOc2ccccc2[C@@H]2C[C@@H]2CNC(=O)[C@H](Cc2cccc(Cl)c2)NC(=O)C2(CCCC2)NC1=O [compound 387]
100 to 1000	CC[C@H](C)[C@@H]1NCCCNCCNC(=O)[C@H](Cc2cccc(Cl)c2)NC(=O)C2(CCCC2)NC1=O [compound 390]
0.1 to 10	C[C@@H]1C(=O)N[C@H](Cc2cc(F)c(F)c(F)c2)C(=O)NCCCc2ccccc2OCCN[C@@H](C2CC2)C(=O)N1C [compound 391]
10 to 100	CC[C@H](C)[C@@H]1NCCOc2ccccc2CC(C)CNC(=O)[C@H](Cc2cccc(Cl)c2)NC(=O)C2(CCCC2)NC1=O (stereo partly drawn) [compound 392]
100 to 1000	CC[C@H](C)[C@@H]1NCCOCCOCCNC(=O)[C@H](Cc2cccc(Cl)c2)NC(=O)C2(CCCC2)NC1=O [compound 393]
100 to 1000	C[C@@H]1C(=O)N[C@H](Cc2ccc(F)cc2)C(=O)NCCCCCOCCN[C@@H](C2CC2)C(=O)N1C [compound 398]

The next lines start with the molecule.

Structure (SMILES)	Ki [nM]
C[C@@H]1C(=O)N[C@H](Cc2ccc(F)cc2)C(=O)NCCCc2ccccc2OCCN[C@@H](CCN)C(=O)N1C [compound 338]	100 to 1000
C[C@@H]1C(=O)N[C@H](Cc2ccc(F)cc2)C(=O)NCCCc2ccccc2OCCN[C@@H](CCCN)C(=O)N1C [compound 339]	100 to 1000
CSCC[C@@H]1NCCOc2ccccc2CCCNC(=O)[C@@H](Cc2ccc(F)cc2)NC(=O)[C@@H](C)N(C)C1=O [compound 340]	10 to 100
N#Cc1ccccc1C[C@@H]1NCCOc2ccccc2/C=C/CNC(=O)[C@H](Cc2cccc(Cl)c2)NC(=O)C2(CCCC2)NC1=O [compound 342]	100 to 1000
COC[C@@H]1NCCOc2ccccc2/C=C/CNC(=O)[C@H](Cc2cccc(Cl)c2)NC(=O)C2(CCCC2)NC1=O [compound 344]	100 to 1000
O=C1NC/C=C/c2ccccc2OCCN[C@@H](C2CC2)C(=O)NC2(CCCC2)C(=O)N[C@H]1Cc1cccc(Cl)c1 [compound 346]	100 to 1000
C[C@@H]1C(=O)N[C@H](Cc2ccc(F)cc2)C(=O)NCCCc2cc(C(F)(F)F)ccc2OCCN[C@@H](C2CC2)C(=O)N1C [compound 356]	100 to 1000
CC[C@H](C)[C@@H]1NCCOCC=CCCNC(=O)[C@H](Cc2cccc(Cl)c2)NC(=O)C2(CCCC2)NC1=O [compound 360]	100 to 1000
CCC(C)C1NCCCc2ccccc2C=CCCNC(=O)C(Cc2cccc(Cl)c2)NC(=O)C2(CCCC2)NC1=O (stereo not drawn) [compound 361]	100 to 1000
CC[C@H](C)[C@@H]1NCc2ccccc2CCCCCNC(=O)[C@H](Cc2cccc(Cl)c2)NC(=O)C2(CCCC2)NC1=O [compound 362]	100 to 1000
CC[C@H](C)[C@@H]1NCCCc2ccccc2CCCCNC(=O)[C@H](Cc2cccc(Cl)c2)NC(=O)C2(CCCC2)NC1=O [compound 371]	10 to 100
C[C@@H]1C(=O)N[C@H](Cc2ccc(F)cc2)C(=O)NCCCc2cc(Cl)ccc2OCCN[C@@H](C2CC2)C(=O)N1C [compound 373]	10 to 100
CC1CCNC(=O)[C@@H](Cc2ccc(F)cc2)NC(=O)[C@@H](C)N(C)C(=O)[C@H](C2CC2)NCCOc2ccccc21 (stereo partly drawn) [compound 375]	100 to 1000
CC1C(=O)NC(Cc2ccc(F)cc2)C(=O)NCC2CC2c2ccccc2OCCNC(C2CC2)C(=O)N1C (stereo not drawn) [compound 379]	10 to 100
CC[C@H](C)[C@@H]1NCCOc2ccccc2/C=C\CNC(=O)[C@H](Cc2cccc(Cl)c2)NC(=O)C2(CCCC2)NC1=O [compound 380]	100 to 1000
CC[C@H](C)[C@@H]1NCCOc2cc(F)ccc2CCCNC(=O)[C@H](Cc2cccc(Cl)c2)NC(=O)C2(CCCC2)NC1=O [compound 383]	100 to 1000
CC[C@H](C)[C@@H]1NCCOc2ccc(Cl)cc2CCCNC(=O)[C@H](Cc2cccc(Cl)c2)NC(=O)C2(CCCC2)NC1=O [compound 384]	100 to 1000
C[C@@H]1C(=O)N[C@H](Cc2ccc(F)cc2)C(=O)NC/C=C\c2ccccc2OCCN[C@@H](C2CC2)C(=O)N1C [compound 400]	10 to 100

Same assay, conditions: Table 3C; read-out: Ki

Ki [nM]	Structure (SMILES)
10 to 100	C[C@@H]1C(=O)N[C@H](Cc2cccc(Cl)c2)C(=O)NC/C=C/c2ccccc2OCCNC2(CCCC2)C(=O)N1C [compound 396]
100 to 1000	C[C@H]1C(=O)N[C@H](Cc2cccc(Cl)c2)C(=O)NC/C=C/c2ccccc2OCCNC2(CCCC2)C(=O)N1C [compound 397]

Same assay, conditions: Table 3D; read-out: Ki

Ki [nM]	Structure (SMILES)
1000 to 10000	CC(C)C[C@@H]1NC[C@@H](C)Oc2ccccc2CCCNC(=O)[C@H](Cc2cccc(Cl)c2)NC(=O)C2(CCCC2)NC1=O [compound 438]
100 to 1000	CC[C@H](C)[C@@H]1NCCOc2ccccc2CCCNC(=O)[C@@H](Cc2ccc(F)cc2)NC(=O)[C@@H](COCc2ccccc2)N(C)C1=O [compound 440]
1000 to 10000	CCCC1NCCOc2ccccc2CCCNC(=O)C(C(C)c2ccccc2)NC(=O)CN(C)C1=O (stereo not drawn) [compound 448]
1000 to 10000	CC[C@H](C)[C@@H]1NCCOc2ncccc2CCCNC(=O)[C@H](Cc2cccc(Cl)c2)NC(=O)C2(CCCC2)NC1=O [compound 449]
